Measurements taken from ChEMBL document CHEMBL1201862, “PubChem BioAssay data set” (2004).
“And” between values parts separate entries of the source, which are not always exact repeats. Equal entries are not always repeated. The source made the active and inactive calls.

Key:
[1] = target: T1, Coagulation factor XII (Homo sapiens, UniProt P00748); assay type: functional;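 note: activated factor XIIa alpha cleaving a fluorogenic AMC peptide substrate; inhibitor potency from loss of enzyme activity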
T1 sequence (P00748 whole entry): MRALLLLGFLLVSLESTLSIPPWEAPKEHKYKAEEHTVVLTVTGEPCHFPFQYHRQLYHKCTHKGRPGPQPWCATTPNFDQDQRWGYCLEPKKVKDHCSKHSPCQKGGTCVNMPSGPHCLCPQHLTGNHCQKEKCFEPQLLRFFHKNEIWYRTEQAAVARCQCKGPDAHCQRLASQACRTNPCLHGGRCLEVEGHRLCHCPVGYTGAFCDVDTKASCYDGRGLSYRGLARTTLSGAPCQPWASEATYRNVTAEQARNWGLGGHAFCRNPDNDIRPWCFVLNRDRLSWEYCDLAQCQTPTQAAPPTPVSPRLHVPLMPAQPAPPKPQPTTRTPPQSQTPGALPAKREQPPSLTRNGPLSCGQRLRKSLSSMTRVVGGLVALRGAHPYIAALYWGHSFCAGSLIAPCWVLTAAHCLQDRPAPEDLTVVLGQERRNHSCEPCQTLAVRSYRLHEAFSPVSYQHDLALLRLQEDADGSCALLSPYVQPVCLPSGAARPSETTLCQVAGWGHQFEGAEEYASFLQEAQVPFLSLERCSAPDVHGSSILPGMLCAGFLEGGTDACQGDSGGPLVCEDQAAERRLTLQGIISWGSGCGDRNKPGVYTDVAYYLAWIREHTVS

[2] = target: Troponin, cardiac muscle (Homo sapiens, UniProt P19429+P45379+P63316); assay: Fluorescence-based biochemical high throughput dose response assay for activators of the calcium sensitivity of cardiac Regulated Thin Filaments (RTF). [Related pubchem assays (depositor defined):AID493008, AID493018, AID504382, AID504383]; assay type: protein-complex assay
[3] = system: H9c2; assay: cells; assay type: functional, cell-based; conditions: Rattus norvegicus, H9c2, Myocardium;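 note: confirmatory concentration-response retest of ultra-high-throughput screening hits for modulation of myocardial damage; cell death induced by hydrogen peroxide oxidative stress; compound pretreatment for 60 min then peroxide exposure for 2 h; potency is for protecting the cells against peroxide damage rather than for killing them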
[4] = target: Melanocortin receptor 4 (Homo sapiens, UniProt P32245); assay type: functional, cell-based;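 note: Cell-based assay with luminescence read-out, confirmatory dose-response testing for agonist activity of biased ligands at MC4R; human U2OS cells with tagged receptor and beta-arrestin; potency of agonists that increase receptor coupling to beta-arrestin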
[5] = target: T2, X-box-binding protein 1 (Homo sapiens, UniProt P17861); assay type: functional, Cricetulus griseus;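 note: confirmatory dose-response counter-screen serving a CHOP assay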
T2 sequence (P17861 whole entry): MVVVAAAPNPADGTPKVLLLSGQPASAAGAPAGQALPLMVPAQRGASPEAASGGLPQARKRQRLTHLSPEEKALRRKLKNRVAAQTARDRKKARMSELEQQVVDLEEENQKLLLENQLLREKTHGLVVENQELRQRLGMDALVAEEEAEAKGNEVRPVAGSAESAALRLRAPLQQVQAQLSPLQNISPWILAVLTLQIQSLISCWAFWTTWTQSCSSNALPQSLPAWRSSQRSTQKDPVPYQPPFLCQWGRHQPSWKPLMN

[6] = target: DNA dC->dU-editing enzyme APOBEC-3G (Homo sapiens, UniProt Q9HC16); assay: Dose Response confirmation of small molecule APOBEC3G DNA Deaminase Inhibitors via a fluorescence-based single-stranded DNA deaminase assay. [Related pubchem assays (depositor defined):AID493012, AID493028]; assay type: functional
[7] = target: T3, Leucine aminopeptidase (Plasmodium falciparum 3D7, UniProt Q8IL11); assay: P. falciparum M17LAP inhibitors, primary screen, biochemical, fluorogenic H-Leu-NHMec substrate, 1536-well (AID 1619); assay type: functional
T3 sequence (Q8IL11 whole entry): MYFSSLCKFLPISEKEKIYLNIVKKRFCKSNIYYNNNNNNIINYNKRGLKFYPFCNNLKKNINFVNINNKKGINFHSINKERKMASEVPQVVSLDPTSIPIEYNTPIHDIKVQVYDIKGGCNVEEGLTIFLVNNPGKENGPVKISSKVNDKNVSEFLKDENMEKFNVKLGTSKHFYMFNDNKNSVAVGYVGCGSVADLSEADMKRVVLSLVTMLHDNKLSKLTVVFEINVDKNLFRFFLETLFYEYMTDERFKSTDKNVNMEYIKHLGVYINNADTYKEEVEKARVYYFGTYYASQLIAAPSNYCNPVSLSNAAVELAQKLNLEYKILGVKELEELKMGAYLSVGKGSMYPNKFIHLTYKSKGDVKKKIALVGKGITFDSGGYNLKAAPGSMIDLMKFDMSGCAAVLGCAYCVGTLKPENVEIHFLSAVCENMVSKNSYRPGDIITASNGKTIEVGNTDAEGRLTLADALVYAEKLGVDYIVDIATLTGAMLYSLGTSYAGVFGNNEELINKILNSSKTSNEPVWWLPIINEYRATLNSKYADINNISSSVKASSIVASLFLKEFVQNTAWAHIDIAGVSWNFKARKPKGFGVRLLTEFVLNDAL

[8] = target: T4, Protein RecA (Mycobacterium tuberculosis, UniProt P9WHJ3); assay: Fluorescence Cell-Free Homogeneous Dose Retest to Identify Inhibitors of RecA-Intein Splicing Activity. [Related pubchem assays (depositor defined):AID2097, AID2223, AID489010, AID492950]; assay type: functional
T4 sequence (P9WHJ3 whole entry): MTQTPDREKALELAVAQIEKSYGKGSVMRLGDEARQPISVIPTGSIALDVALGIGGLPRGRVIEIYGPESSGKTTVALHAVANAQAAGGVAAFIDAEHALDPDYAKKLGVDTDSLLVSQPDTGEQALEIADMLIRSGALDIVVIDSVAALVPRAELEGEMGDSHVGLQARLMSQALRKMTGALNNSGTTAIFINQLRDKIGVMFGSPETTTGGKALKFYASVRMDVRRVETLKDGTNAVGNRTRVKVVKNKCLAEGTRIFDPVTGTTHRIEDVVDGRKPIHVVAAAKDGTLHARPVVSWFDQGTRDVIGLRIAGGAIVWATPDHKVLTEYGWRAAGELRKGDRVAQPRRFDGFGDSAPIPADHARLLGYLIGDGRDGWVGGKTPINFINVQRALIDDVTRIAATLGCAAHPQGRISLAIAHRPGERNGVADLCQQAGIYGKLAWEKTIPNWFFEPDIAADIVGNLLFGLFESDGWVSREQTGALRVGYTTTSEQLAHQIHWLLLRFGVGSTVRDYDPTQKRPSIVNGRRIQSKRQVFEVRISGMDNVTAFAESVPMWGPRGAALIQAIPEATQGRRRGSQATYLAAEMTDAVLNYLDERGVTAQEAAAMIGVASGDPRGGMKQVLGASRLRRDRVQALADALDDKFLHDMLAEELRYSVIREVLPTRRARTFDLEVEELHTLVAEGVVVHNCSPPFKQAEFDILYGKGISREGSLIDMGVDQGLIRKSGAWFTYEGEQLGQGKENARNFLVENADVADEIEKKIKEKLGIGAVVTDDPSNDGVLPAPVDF

[9] = microbe, parasite or virus in culture; assay type: functional; conditions: Mycobacterium tuberculosis
[10] = target: Cytochrome P450 2C19 (Homo sapiens, UniProt P33261); assay: Cytochrome panel assay with activity outcomes. Panel member name: p450-cyp2c19 Compounds with AC50 equal or less than 10 uM are considered active; assay type: functional; conditions: read-out: AC50
[11] = target: T5, Replicative DNA helicase DnaB (Mycobacterium tuberculosis, UniProt P9WMR3); assay: DnaB intein splicing inhibitors, dose response, biochemical, cell-free fluorescence (AID 449749); assay type: functional
T5 sequence (P9WMR3 whole entry): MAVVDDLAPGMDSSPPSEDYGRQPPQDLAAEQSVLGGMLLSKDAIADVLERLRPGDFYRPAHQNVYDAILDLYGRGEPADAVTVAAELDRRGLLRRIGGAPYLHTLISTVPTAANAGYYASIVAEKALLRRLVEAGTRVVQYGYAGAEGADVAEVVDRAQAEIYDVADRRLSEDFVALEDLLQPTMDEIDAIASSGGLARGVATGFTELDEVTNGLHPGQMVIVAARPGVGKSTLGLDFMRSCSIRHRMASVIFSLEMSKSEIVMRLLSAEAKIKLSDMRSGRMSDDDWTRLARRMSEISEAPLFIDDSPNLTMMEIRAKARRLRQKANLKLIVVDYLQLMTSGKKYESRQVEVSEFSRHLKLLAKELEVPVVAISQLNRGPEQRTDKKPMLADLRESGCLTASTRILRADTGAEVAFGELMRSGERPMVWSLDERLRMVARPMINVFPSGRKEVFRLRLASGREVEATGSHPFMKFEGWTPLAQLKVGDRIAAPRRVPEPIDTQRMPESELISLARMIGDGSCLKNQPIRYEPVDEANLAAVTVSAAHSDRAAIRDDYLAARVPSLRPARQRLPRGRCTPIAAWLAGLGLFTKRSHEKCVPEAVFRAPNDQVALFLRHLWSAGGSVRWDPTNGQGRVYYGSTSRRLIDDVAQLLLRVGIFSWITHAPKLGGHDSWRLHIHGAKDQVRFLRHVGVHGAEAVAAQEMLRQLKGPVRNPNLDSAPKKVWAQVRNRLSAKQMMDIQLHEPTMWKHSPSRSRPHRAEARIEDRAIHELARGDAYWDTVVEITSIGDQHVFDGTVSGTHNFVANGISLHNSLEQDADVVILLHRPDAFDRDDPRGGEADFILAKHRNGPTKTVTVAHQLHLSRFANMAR

[12] = target: T6, Cytochrome P450 1A2 (Homo sapiens, UniProt P05177);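 note: PubChem cytochrome P450 panel assay, CYP1A2 panel member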
T6 sequence (P05177 whole entry): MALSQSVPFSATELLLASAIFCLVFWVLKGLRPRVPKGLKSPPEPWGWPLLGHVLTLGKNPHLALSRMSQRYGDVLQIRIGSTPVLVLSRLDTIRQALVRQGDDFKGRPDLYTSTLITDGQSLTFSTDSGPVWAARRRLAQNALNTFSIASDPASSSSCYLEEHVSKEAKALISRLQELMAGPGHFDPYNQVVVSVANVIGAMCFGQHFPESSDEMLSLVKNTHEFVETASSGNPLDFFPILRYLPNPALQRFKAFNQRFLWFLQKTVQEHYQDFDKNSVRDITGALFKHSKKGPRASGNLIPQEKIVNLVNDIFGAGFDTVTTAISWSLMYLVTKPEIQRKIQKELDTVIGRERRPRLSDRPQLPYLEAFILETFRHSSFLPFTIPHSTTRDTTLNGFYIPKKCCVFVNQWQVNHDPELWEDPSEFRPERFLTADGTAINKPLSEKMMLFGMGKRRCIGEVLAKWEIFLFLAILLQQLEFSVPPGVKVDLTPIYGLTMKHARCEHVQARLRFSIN

[13] = target: T7, Short transient receptor potential channel 4 (Mus musculus, UniProt Q9QUQ5); assay: mouse TRPC4 channel activators, dose response, cell-based, HEK293 TRPC4/mu-opioid, Fluo-4 calcium (AID 434937); assay type: functional
T7 sequence (Q9QUQ5 whole entry): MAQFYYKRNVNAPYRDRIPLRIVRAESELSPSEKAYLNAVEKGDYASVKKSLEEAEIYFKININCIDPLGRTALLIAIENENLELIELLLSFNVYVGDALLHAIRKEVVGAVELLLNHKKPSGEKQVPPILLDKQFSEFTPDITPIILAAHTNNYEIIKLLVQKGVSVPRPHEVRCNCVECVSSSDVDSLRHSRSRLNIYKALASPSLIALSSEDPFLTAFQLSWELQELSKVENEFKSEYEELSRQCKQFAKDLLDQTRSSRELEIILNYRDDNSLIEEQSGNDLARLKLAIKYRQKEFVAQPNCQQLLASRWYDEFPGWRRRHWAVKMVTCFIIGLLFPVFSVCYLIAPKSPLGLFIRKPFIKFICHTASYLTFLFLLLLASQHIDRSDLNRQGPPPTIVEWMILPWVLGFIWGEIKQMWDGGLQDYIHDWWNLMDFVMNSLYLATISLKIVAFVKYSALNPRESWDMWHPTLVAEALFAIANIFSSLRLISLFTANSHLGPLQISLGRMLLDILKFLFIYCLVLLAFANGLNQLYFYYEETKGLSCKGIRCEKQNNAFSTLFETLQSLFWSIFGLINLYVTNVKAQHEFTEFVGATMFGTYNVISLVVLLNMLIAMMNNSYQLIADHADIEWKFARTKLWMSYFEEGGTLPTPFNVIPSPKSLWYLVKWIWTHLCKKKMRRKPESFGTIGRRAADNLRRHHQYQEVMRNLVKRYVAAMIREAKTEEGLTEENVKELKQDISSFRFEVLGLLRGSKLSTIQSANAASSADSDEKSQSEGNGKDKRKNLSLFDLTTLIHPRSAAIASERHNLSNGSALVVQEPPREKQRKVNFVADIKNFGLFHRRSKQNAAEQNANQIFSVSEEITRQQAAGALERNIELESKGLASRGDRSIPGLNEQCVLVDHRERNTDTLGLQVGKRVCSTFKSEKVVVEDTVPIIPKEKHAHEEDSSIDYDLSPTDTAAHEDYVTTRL

With COC(=O)C(C)Sc1nnc(Cc2cc(O)nc(O)n2)n1-c1ccc(Cl)cc1 (configuration not stated) the IC50 [1] was > 50 µM (inactive).
In the case of COc1ccc(/C=N/NC(=O)c2cc(OC)c(OC)c(OC)c2)cc1CN1CCc2cc(OC)c(OC)cc2C1C (configuration not stated), the EC50 [2] is reported as > 71.5 µM (inactive) and the IC50 [3] is reported as 19.5 µM (active).
With Cc1ccc2nc(Nc3ccc4[nH]c(O)nc4c3)c(-n3nc(C)cc3C)nc2c1 the EC50 [4] was > 89.2 µM (inactive) and the “Absolute IC50 (XBP1)” value [5] was 10 µM.
For CCOc1ccccc1N1C(=O)CC(Sc2n[nH]c(-c3ccccc3)n2)C1=O (configuration not stated), the IC50 [6] was 9.92 µM (active) and the IC50 [7] was 8.97 µM (active).
In the case of Cc1nc2ccccc2n1C1CCN(Cc2nnnn2CCc2ccccc2)CC1, the IC50 [1] is reported as > 50 µM (inactive).
For COc1cccc(CC(NC(C)=O)C(=O)NC2CCN(c3nc(C)cc(C)c3C#N)CC2)c1OC (configuration not stated), the EC50 [2] was > 71.5 µM (inactive).
In the case of Cc1ccc(S(=O)(=O)NCCCCCC(=O)Nc2ccccc2C)cc1, the EC50 [2] is reported as > 71.5 µM (inactive).
In the case of O=C1NCN(c2ccccc2)C12CCN(CCCC(c1ccc(F)cc1)c1ccc(F)cc1)CC2, the EC50 [8] is reported as 20.2 µM (active), the CC50 [9] is reported as 32.9 µM (active) and the AC50 [10] is reported as 7.94 µM (inconclusive) and 15.8 µM (inconclusive). The AC50 [11] was 9.69 µM (active), the AC50 [12] was 12.6 µM (inconclusive) and the “Absolute IC50 (XBP1)” value [5] was 10 µM. For the same compound, the EC50 [13] was 6.68 µM (active).
